EP0244595A2, “Dihydropyridine derivatives, process for their preparation and their use as pharmaceutical compounds” (Byk Gulden Lomberg Chemische Fabrik GmbH, priority 1986, dated 1987)
Counter-ions that a name gives are not always drawn. Like-named read-outs stand apart in the source and are kept apart here.

Tested on: genetisch hypertonen Ratten
Experiment: Antihypertensive effect (systolic blood pressure, tail cuff) in spontaneously hypertensive rats after oral dosing
Format: in vivo, Ratte
Details: Rattus norvegicus; for change in vivo at 10 µmol/kg: 10 µmol/kg p.o. once daily on four consecutive days; for change in vivo at 25 µmol/kg: 25 µmol/kg p.o. once daily on four consecutive days; for change in vivo at 5 µmol/kg: 5 µmol/kg p.o. once daily on four consecutive days
Text: Die antihypertensive Wirksamkeit der erfindungsgemäßen Verbindungen kann am Modell der spontan hypertonen Ratte nachgewiesen werden.
Zur Bestimmung der antihypertensiven Wirkung werden die unten aufgeführten Verbindungen in den angegebenen Dosen an vier aufeinander folgenden Tagen an je 6 männlichen Ratten (Stamm SHR/N/Ibm/Bm, 250-350 g) mit genetisch bedingtem Hochdruck (systolischer Blutdruck > 180 mmHg) täglich einmal mittels Schlundsonde verabfolgt. Die Messung des Blutdrucks erfolgt jeweils 6 und gegebenenfalls 2 oder 24 Studnen nach Substanzgabe.
Die Blutdruckmessung wird in einer Wärmekammer bei 36°C vorgenommen, um eine bessere Durchblutung der Schwanzarterie zu erreichen. Hierzu werden die Tiere in perforierte Lochblechkäfige verbracht und 20 - 40 Min. nach Beginn der Aufwärmung gemessen. Zur Messung des systolischen arteriellen Drucks wird eine ringförmige Manschette mit aufblasbarer Gummimembran zur Unterbindung der Durchblutung und ein ringförmiger Piezokristallaufnehmer zur Erfassung der Pulswellen auf den Schwanz aufgeschoben. Nach erfolgter Unterbindung des Blutstroms in der Schwanzarterie wird der Manschettendruck kontinuierlich reduziert. Die Wiederkehr der Pulswellen bei Druckablassen wird automatisch als systolischer Blutdruck erkannt und ausgedruckt (Bühler, R. er al." Microprocessor-based automation of blood pressure measurement in the conscious rat. Proceedings of the 4th international symposium on rats with spontaneous hypertension and related studies, Rascher, R. et al. (Eds.), Schattauer Verlag, Stuttgart, New York, 1982, S. 410-413). Pulssignale und Druckverlauf werden zur Auswertung graphisch aufgezeichnet.
Zur Gewöhnung an den Meßvorgang werden die Tiere vor Substanzprüfung 14 Tage trainiert. In der zweiten Trainingswoche werden Blutdruck-Vorwerte erhoben. Tiergruppen, die Substanz erhalten, werden gegen eine Kontrollgruppe geprüft.
In der anschließenden Tabelle werden die untersuchten Verbindungen durch laufende Nummern gekennzeichnet, die mit den jewiligen Beispielnummern übereinstimmen.
Tabelle I gibt für die Vertreter der erfindungsgemäßen Verbindungen die prozentuale Senkung des Blutdrucks (BP) nach oraler Verabreichung bei der Ratte wieder.

[1] = 2h after dosing, mean of days 1+4, male SHR/N/Ibm/Bm rats, N=6, read-out: BP (% Änderung vs. Kontrolle), Mittelwert für Meßzeitpunkte: Stunden nach Gabe (Tage) 2h (1.+4.Tag)
[2] = 6h after dosing, mean of days 1-4, male SHR/N/Ibm/Bm rats, N=6, read-out: BP (% Änderung vs. Kontrolle), Mittelwert für Meßzeitpunkte: Stunden nach Gabe (Tage) 6h (1.-4.Tag)
[3] = 24h after dosing, mean of days 1+3, male SHR/N/Ibm/Bm rats, N=6, read-out: BP (% Änderung vs. Kontrolle), Mittelwert für Meßzeitpunkte: Stunden nach Gabe (Tage) 24h (1.+3.Tag)

SMILES	change in vivo at 10 µmol/kg [1]	change in vivo at 10 µmol/kg [2]	change in vivo at 10 µmol/kg [3]	change in vivo at 25 µmol/kg [1]	change in vivo at 25 µmol/kg [2]	change in vivo at 25 µmol/kg [3]	further results
CC1=C(C(=O)OCCCN2CCN(c3ccc4c(c3)OCO4)CC2)C(c2cccc([N+](=O)[O-])c2)C(C(=O)O[C@@H]2C[C@H](C)CC[C@H]2C(C)C)=C(C)N1 (single isomer, unassigned) [Beispiel 16, 1,4-Dihydro-2,6-dimethyl-4-(3-nitrophenyl)-pyridin-3,5-dicarbonsäure-3-(-)-menthyl-5-{3-[4-(3,4-methylendioxyphenyl)-1-piperazinyt]-propyl}ester-fumarat]	-21%	-21%	-7%				
CC1=C(C(=O)OCCCN2CCN(c3ccccc3C)CC2)C(c2cccc([N+](=O)[O-])c2)C(C(=O)O[C@@H]2C[C@H](C)CC[C@H]2C(C)C)=C(C)N1 (single isomer, unassigned) [Beispiel 17, 1,4-Dihydro-2,6-dimethyl-4-(3-nitrophenyl)-pyridin-3,5-dicarbonsäure-3-(-)-menthyl-5-{3-[4-(2-tolyl)-1-piperazinyl]-propyl}-ester-fumarat]	-17%	-14%	-3%				
CC1=C(C(=O)OCCCN2CCN(c3ccc(C)cc3C)CC2)C(c2cccc([N+](=O)[O-])c2)C(C(=O)O[C@@H]2C[C@H](C)CC[C@H]2C(C)C)=C(C)N1 (single isomer, unassigned) [Beispiel 18, 1,4-Dihydro-2,6-dimethyl-4-(3-nitrophenyl)-pyridin-3,5-dicarbonsäure-3-(-)-menthyl-5-{3-[4-(2,4-dimethylphenyl)-1-piperazinyl]-propyl}-ester-fumarat]	-15%	-18%	-3%				
COc1ccccc1N1CCN(CCCOC(=O)C2=C(C)NC(C)=C(C(=O)O[C@@H]3C[C@H](C)CC[C@H]3C(C)C)C2c2cccc(Cl)c2Cl)CC1 (single isomer, unassigned) [Beispiel 21, 4-(2,3-Dichlorphenyl)-1,4-dihydro-2,6-dimethyl-pyridin-3,5-dicarbonsäure-3-(-)-menthyl-5-{3-[4-(2-methoxyphenyl)-1-piperazinyl]-propyl}ester-fumarat]				-50%	-51%	-46%	
CCOc1ccccc1N1CCN(CCCOC(=O)C2=C(C)NC(C)=C(C(=O)O[C@@H]3C[C@H](C)CC[C@H]3C(C)C)C2c2cccc(Cl)c2Cl)CC1 (single isomer, unassigned) [Beispiel 22, 4-(2,3-Dichlorphenyl)-1,4-dihydro-2,6-dimethyl-pyridin-3,5-dicarbonsäure-3-(-)-menthyl-5-{3-[4-(2-ethoxyphenyl)-1-piperazinyl]-propyl}ester-fumarat]				-46%	-55%	-43%	
CC1=C(C(=O)OCCN2CCCCC2)C(c2cccc([N+](=O)[O-])c2)C(C(=O)O[C@@H]2C[C@H](C)CC[C@H]2C(C)C)=C(C)N1 (single isomer, unassigned) [Beispiel 23, 1,4-Dihydro-2,6-dimethyl-4-(3-nitrophenyl)-pyridin-3,5-dicarbonsäure-3-(-)-menthyl-5-[2-(1-piperidinyl)-ethyl]-ester-fumarat]				-17%	-26%	4%	
CC1=C(C(=O)OCCCN2CCC(c3ccccc3)(c3ccccc3)CC2)C(c2cccc([N+](=O)[O-])c2)C(C(=O)O[C@@H]2C[C@H](C)CC[C@H]2C(C)C)=C(C)N1 (stereo partly drawn) [Beispiel 1a, 1,4-Dihydro-2,6-dimethyl-4-(3-nitrophenyl)-pyridin-3,5-dicarbonsäure-3-(-)-menthyl-5-[3-(4,4-diphenylpiperidyl-1)-propyl]-ester-hydrochlorid]				-24%	-20%	-15%	
CC1=C(C(=O)OCCCN2CCC(c3ccccc3)CC2)C(c2cccc([N+](=O)[O-])c2)C(C(=O)O[C@@H]2C[C@H](C)CC[C@H]2C(C)C)=C(C)N1 (stereo partly drawn) [Beispiel 2a, 1,4-Dihydro-2,6-dimethyl-4-(3-nitrophenyl)-pyridin-3,5-dicarbonsäure-3-(-)-menthyl-5-[3-(4-phenylpiperidyl-1)-propyl]-ester-hydrochlorid]				-25%	-24%	-16%	
COc1ccccc1N1CCN(CCCOC(=O)C2=C(C)NC(C)=C(C(=O)O[C@@H]3C[C@H](C)CC[C@H]3C(C)C)C2c2cccc([N+](=O)[O-])c2)CC1 (stereo partly drawn) [Beispiel 3a, 1,4-Dihydro-2,6-dimethyl-4-(3-nitrophenyl)-pyridin-3,5-dicarbonsäure-3-(-)-menthyl-5-{3-[4-(2-methoxyphenyl)-1-piperazinyl]-propyl}-ester-fumarat]				-46%	-42%	-15%	
CC1=C(C(=O)OCCN2CCN(c3ccccc3)CC2)C(c2cccc([N+](=O)[O-])c2)C(C(=O)O[C@@H]2C[C@H](C)CC[C@H]2C(C)C)=C(C)N1 (stereo partly drawn) [Beispiel 4a, 1,4-Dihydro-2,6-dimethyl-4-(3-nitrophenyl)-pyridin-3,5-dicarbonsäure-3-(-)-menthyl-5-[2-(4-phenyl-1-piperazinyl)-ethyl]ester-fumarat]							change in vivo at 5 µmol/kg [1]: -34%; change in vivo at 5 µmol/kg [2]: -23%; change in vivo at 5 µmol/kg [3]: -14%
CC1=C(C(=O)OCCN2CCN(c3ccccn3)CC2)C(c2cccc([N+](=O)[O-])c2)C(C(=O)O[C@@H]2C[C@H](C)CC[C@H]2C(C)C)=C(C)N1 (stereo partly drawn) [Beispiel 5a, 1,4-Dihydro-2,6-dimethyl-4-(3-nitropheny)-pyridin-3,5-dicarbonsäure-3-(-)-menthyl-5-{2-[4-(2-pyridyl)-1-piperazinyl]-ethyl}-ester-fumarat]	-29%	-11%	-3%				
